{"source": "patent EP1952812A1", "about": "“Drug for treating thalessemia, falciform anemia and all other forms of anemia treatable therewith” (Universita' Degli Studi di Ferrara, priority 2007, dated 2008)", "key": {"[1]": {"tested_on": "K562 human cell line", "assay": "Erythroid differentiation of K562 cells (benzidine positivity), with or without UVA photoactivation", "format": "cell-based", "conditions": "percentage of K562 cells positive to benzidine", "procedure": "The evaluation of the biological activity of the treatment with psoralens photoactivated with UVA light was conducted by examining the capacity of these molecules to modulate the gamma-globin gene expression in the K562 human cell line, which is able to differentiate in the erythroid sense by expressing the gamma-globin genes if subjected to treatment with biological response modifiers suitable for the purpose (Lampronti I., Bianchi N Borgatti M., Fibach E.,Prus E.,Gambari R. Eur J Haematology 71 189-195 2003, Bianchi N, Ongaro F, Chiarabelli C, Gualandi L, Mischiati C, Bergamini P, Gambari R. Biochem Pharmacol, 60:31-40, 2000;Bianchi N, Osti F, Rutigliano C, Ginanni Corradini F, Borsetti E, Tomassetti M, Mischiati C, Feriotto G and Gambari R, British Journal of Haematology, 104:258-263, 1999).\nThe differentiation level was evaluated by analyzing the cell positivity to benzidine (Lampronti I., Bianchi N., Borgatti M., Fibach E., Prus E., Gambari R. Eur J Haematology 71 189-195 2003,).\nThe gamma-globin coding gene expression was evaluated by quantitative RT-PCR (reverse transcriptase PCR) (Lampronti I., Bianchi N Borgatti M., Fibach E.,Prus E.,Gambari R. Eur J Haematology. 71 189-195 2003) Some of the data obtained are reported in Table 1. As can be easily noted, treatment with different furocoumarin derivatives photoactivated with UVA light are able to induce an increase in the percentage of cells positive to benzidine (60-85% of the treated cells, compared with 5-17% of the K562 control cells treated with furocoumarin derivatives in the absence of UVA light). […] In the control not treated with furocoumarin derivatives, erythrolid differentiation is low (4-6%) both in the absence and in the presence of UVA light."}, "[2]": {"tested_on": "gamma-globin mRNA", "assay": "gamma-globin mRNA production by quantitative RT-PCR in human erythroid precursors isolated from peripheral blood (two-step Fibach culture)", "format": "cell-based", "conditions": "for gamma-globulin mRNA: ratio of mRNA content in UVA-treated cells to that of UVA-untreated cells, cells treated for 6 days", "excerpt": "To verify if treatment with 8-meethoxypsoralen and trimethylangelicin photoactivated with UVA light was able to stimulate mRNA production for gamma-globin in human erythroid precursors isolated from peripheral blood, the method used was that described by Fibach et al. (Fibach E. Hemoglobin, 22: 445-458, 1998; Fibach E, Burke KP, Schechter AN, Noguchi CT & Rodgers GP. Blood, 81: 1630-1635, 1993). This method comprises two steps: the cells isolated from peripheral blood of a healthy subject or affected with a hemopoietic pathology, such as falciform anemia or beta-thalessemia, are seeded in culture medium to which 10% of conditioned medium deriving from the bladder carcinoma cell line 5637 is added. The second step consists of cultivating the isolated cells in a suitable culture medium to which erythropoietin hormone, 30% of bovine fetal serum, 2-mercapto-ethanol, albumin, glutamine and desametasone are added to enable proliferation and maturing of erythroid stem cells. In this step the cells can be treated with potential HbF inducers.\nThe gamma-globin mRNA production level is much higher than that encountered using hydroxyurea as inducer (Fibach E. Hemoglobin, 22: 445-458, 1998; Fibach E, Burke KP, Schechter AN, Noguchi CT & Rodgers GP. Blood, 81: 1630-1635, 1993)."}, "[3]": {"conditions": "Homo sapiens, light or radiation study, 144 h, read-out: gamma-globin mRNA"}}, "data": [{"smiles": "COc1c2occc2cc2ccc(=O)oc12", "note": "[Compound 8-MOP, 8-methoxypsoralen, reference compound]", "values": [{"measurement": "Erythroid differentiation with UVA (%)", "setting": "[1]; concentration 0.25 µM", "result": 65, "unit": "%"}, {"measurement": "Erythroid differentiation without UVA (%)", "setting": "[1]; concentration 0.25 µM", "result": 17, "unit": "%"}, {"measurement": "fold induction at 0.25 µM", "setting": "[2]; [3]", "result": 2.76}, {"measurement": "fold induction at 1 µM", "setting": "[2]; [3]", "result": 18.5}]}, {"smiles": "Cc1cc(=O)oc2c1cc(C)c1occ(C)c12", "note": "[trimethylangelicin]", "values": [{"measurement": "Erythroid differentiation with UVA (%)", "setting": "[1]; concentration 0.50 µM", "result": 85, "unit": "%"}, {"measurement": "Erythroid differentiation without UVA (%)", "setting": "[1]; concentration 0.50 µM", "result": 5, "unit": "%"}, {"measurement": "gamma-globulin mRNA", "setting": "[2]; concentration 0.10 µM", "result": 9.56}, {"measurement": "gamma-globulin mRNA", "setting": "[2]; concentration 0.50 µM", "result": 12.86}]}, {"smiles": "O=c1ccc2ccc3occc3c2o1", "note": "[angelicin]", "values": [{"measurement": "Erythroid differentiation with UVA (%)", "setting": "[1]; concentration 0.50 µM", "result": 60, "unit": "%"}, {"measurement": "Erythroid differentiation without UVA (%)", "setting": "[1]; concentration 0.50 µM", "result": 6, "unit": "%"}]}]}
